Laboratory results: patent US9597407B2, “Targeted antimicrobial moieties” (C3 Jian, Inc., priority 2009, dated 2017)
“Also recorded” adds a separate entry of the source.

Assays:
[1] = test system: microorganisms; experiment: Peptide activities: binding, antimicrobial, growth or phenotype altering (Table 8)
From the text: In certain embodiments, peptides described herein can have multiple activities. Thus for example, a peptide can have both binding/targeting activity and antimicrobial activity. Such peptides can be used, e.g., in a chimeric construct, for any or all of these properties. Thus, for example, a peptide designated “B” in Table 8 can be used as a targeting peptide. If it is also designated G or M it can also be used for antimicrobial activity.

[2] = test system: bacteria; experiment: Binding of targeting peptides to microorganisms (Table 3); details: preferably 1x PBS
[3] = test system: microorganisms; experiment: Morphology, biofilm and growth disruption by peptides (Table 5); type: cell-based; set-up: key: A: Peptide aggregates; B: Less hyphal formation; Clumps; Diffuse clumps and small polyps; F: Diffuse growth; H: Thin; I: Growth inhibition; Microcolony formation; Rippled; Small polyps; Thick; W: Halo formation on top, microlonies on bottom
From the text: In certain embodiments peptides that induce alterations in phenotype or other biological activities can also be used as antimicrobial effector moieties.

[4] = microorganism the targeting peptide binds, binding in aqueous buffers that varied with peptide solubility
[5] = microorganism bound by the targeting peptide, binding in aqueous buffers chosen by peptide solubility

Substance	Activities [1]	Target(s) [2, 4]	Organism, effect ([3]; C. jeikeium)	Organism, effect ([3]; MRSA)	Organism, effect ([3]; S. epidermidis)	Organism, effect ([3]; M. luteus)	Organism, effect ([3]; S. mutans)	Organism, effect ([3]; S. pneumoniae)	Organism, effect ([3]; B. subtilis)	Organism, effect ([3]; C. albicans)	Organism, effect ([3]; C. jejuni)	Organism, effect ([3]; E. coli)	Organism, effect ([3]; E. faecalis)	Organism, effect ([3]; P. aeruginosa)	Target(s) [2, 5]
PF-048 (LYFAFKKYQERVNQAPNIEY; Peptide with targeting and/or antimicrobial activity)	G B	S. epidermidis and M. luteus and E. coli and MRSA and C. jeikeium and C. jejuni	C. jeikeium (S)	MRSA (W)	S. epidermidis (D)	–	–	–	–	–	–	–	–	–	–
PF-049 (AYYLKRREEKGK; Peptide with targeting and/or antimicrobial activity)	G B	S. epidermidis and MRSA and C. jeikeium and C. jejuni	–	MRSA (S)	–	–	–	–	–	–	–	–	–	–	–
PF-051 (RFFNFEIKKSTKVDYVFAHVDLSDV; Peptide with targeting and/or antimicrobial activity)	G B	S. epidermidis and M. luteus and P. aeruginosa and C. albicans and MRSA and S. pneumoniae and E. faecalis	–	MRSA (D)	S. epidermidis (D)	M. luteus (C)	S. mutans (D)	S. pneumoniae (D)	–	–	–	–	–	–	–
PF-052 (QELINEAVNLLVKSK; Peptide with targeting and/or antimicrobial activity)	G B	S. epidermidis and M. luteus and E. coli and MRSA and E. faecalis and C. jeikeium and C. jejuni	C. jeikeium (D)	MRSA (R)	S. epidermidis (S)	M. luteus (A)	–	–	–	–	–	–	–	–	–
PF-053 (KLFGQWGPELGSIYILPALIGSIILIAIVTLILRAMRK; Peptide with targeting and/or antimicrobial activity)	G B	S. epidermidis and M. luteus and E. coli and P. aeruginosa and C. albicans and MRSA and S. pneumoniae and E. faecalis	C. jeikeium (D)	MRSA (D)	S. epidermidis (C)	M. luteus (D)	–	S. pneumoniae (S)	B. subtilis (H)	C. albicans (A)	C. jejuni (D)	E. coli (A)	E. faecalis (A)	P. aeruginosa (A)	–
PF-058 (FADQSQDNA; Peptide with targeting and/or antimicrobial activity)	G B	S. epidermidis and M. luteus and E. coli and C. albicans and MRSA and C. jeikeium and C. jejuni	–	MRSA (M)	–	–	–	–	–	–	–	–	–	–	–
PF-061 (GYNSYKAVQDVKTHSEEQRVTAKK; Peptide with targeting and/or antimicrobial activity)	G B	S. epidermidis; also recorded: S. pneumoniae	–	–	S. epidermidis (R)	–	–	S. pneumoniae (R)	B. subtilis (R)	–	C. jejuni (R)	–	–	–	–
PF-064 (DYYGKE; Peptide with targeting and/or antimicrobial activity)	G B	E. coli	–	MRSA (M)	S. epidermidis (D)	–	–	–	–	–	–	–	–	–	–
PF-066 (IKGTVKAVDETTVVITVNGHGTELTFEKPAIKQVDPS; Peptide with targeting and/or antimicrobial activity)	G B	M. luteus; also recorded: E. coli; also recorded: C. jeikeium	–	MRSA (S)	–	–	–	–	–	–	–	–	–	–	–
PF-073 (CPSVTMDACALLQKFDFCNNISHFRHFFAIKQPIER; Peptide with targeting and/or antimicrobial activity)	G B	–	C. jeikeium (D)	MRSA (M)	S. epidermidis (R)	M. luteus (R)	–	S. pneumoniae (D)	–	–	C. jejuni (D)	–	–	–	S. epidermidis and M. luteus and P. aeruginosa and C. albicans and MRSA and S. pneumoniae and E. faecalis
PF-127 (MLRYLSLFAVGLATGYAWGWIDGLAASLAV; Peptide with targeting and/or antimicrobial activity)	G B	–	C. jeikeium (A)	–	S. epidermidis (M)	M. luteus (A)	–	–	–	–	–	–	–	–	S. epidermidis and M. luteus and E. coli and P. aeruginosa and C. albicans and MRSA and S. pneumoniae and E. faecalis
PF-289 (MGRHLWNPSYFVATVSENTEEQIRKYRKNK; Peptide with targeting and/or antimicrobial activity)	G B	–	–	–	–	–	–	–	B. subtilis (C)	–	–	–	–	–	C. difficile
PF-360 (MEQKVKVIFVPRSKPDNQLKTFVSAVLFKA; Peptide with targeting and/or antimicrobial activity)	G B	–	–	MRSA (H)	S. epidermidis (S)	–	–	–	–	–	–	E. coli (C)	–	–	S. epidermidis; also recorded: B. subtilis; also recorded: E. coli; also recorded: P. aeruginosa; also recorded: C. albicans; also recorded: E. faecalis; also recorded: C. jeikeium; also recorded: C. jejuni
PF-362 (NIERILKEKVWMIRCVE; Peptide with targeting and/or antimicrobial activity)	G B	–	–	MRSA (C)	–	–	–	–	–	–	–	E. coli (C)	–	–	S. epidermidis; also recorded: E. coli; also recorded: P. aeruginosa; also recorded: C. albicans; also recorded: E. faecalis; also recorded: C. jejuni
PF-363 (SMLSVTVMCLMHASVAANQAMEKKV; Peptide with targeting and/or antimicrobial activity)	G B	–	–	MRSA (H)	S. epidermidis (S)	–	–	S. pneumoniae (R)	–	–	C. jejuni (D)	E. coli (C)	E. faecalis (D)	–	B. subtilis; also recorded: E. coli; also recorded: P. aeruginosa; also recorded: C. albicans; also recorded: S. pneumoniae; also recorded: E. faecalis
PF-369 (MSEAVNLLRGARYSQRYAKNQVPYEVIIEK; Peptide with targeting and/or antimicrobial activity)	G B	–	–	MRSA (H)	S. epidermidis (S)	–	–	–	–	–	–	E. coli (R)	E. faecalis (C)	–	B. subtilis; also recorded: B. fragilis; also recorded: E. coli; also recorded: P. aeruginosa; also recorded: C. albicans; also recorded: S. pneumoniae; also recorded: C. jeikeium; also recorded: C. jejuni
PF-370 (VIFLHKESGNLKEIFY; Peptide with targeting and/or antimicrobial activity)	G B	–	–	MRSA (C)	S. epidermidis (C)	–	–	–	–	–	–	E. coli (R)	–	–	S. epidermidis; also recorded: E. coli; also recorded: P. aeruginosa; also recorded: E. faecalis; also recorded: C. jejuni
PF-373 (HFYLLFER; Peptide with targeting and/or antimicrobial activity)	G B	–	–	MRSA (M)	S. epidermidis (M)	–	–	–	–	–	–	–	–	–	S. epidermidis and E. coli and P. aeruginosa and C. albicans and MRSA and E. faecalis and C. jejuni
